Holding throughout (format): physicochemical
Data set [1] is described as follows: pH-dependence of solubility in distilled water (HPLC). To be noted: for solubility: distilled water, 22 °C, aqueous buffer, thermodynamic from solid. As to the method: (§1) A reversed phase gradient HPLC method was used for the analysis of besifloxacin solubility samples. The conditions are listed below:
(§2) The solubility of besifloxacin HCl, lot 050956330, was determined in distilled water as a function of pH by adjusting the pH with 1 N NaOH. Suspensions of the drug substance (about 50-150 mg in 10 mL distilled water) were equilibrated for 72-96 hours using a Burrell shaker. Laboratory temperature was 22±2° C. The pH of the suspensions was measured in the presence of excess solid prior to sampling. The samples were centrifuged in an Enprotech ISS-I13 centrifuge at 10,000 RPM for 15 minutes or filtered through 0.45[…] or PVDF filters. When samples were filtered, a volume of filtrate was discarded to allow saturation of filters. The supernatant or the filtrate was diluted as needed using the HPLC diluent prior to analysis. Sample concentration was monitored at varying time intervals to ensure complete equilibration. Also, sample concentration was reported as besifloxacin free base concentration rather than HCl salt.

Data set [2] in a line: Equilibrium solubility in various solvents (HPLC). To be noted: 22° C. ± 2° C., listed as Free base; for solubility: solubility of free base.
Data set [3] can be described thus: Equilibrium solubility in various solvents (HPLC). Conditions: Water, 22° C. ± 2° C., listed as Free base. As to the method:
as §1
The solubility of besifloxacin HCl was evaluated in several organic solvents. An excess of drug substance was equilibrated with 10 mL of each solvent for 24-48 hours at room temperature (24±3° C.) using either a small magnetic stirrer or a Burrell Wrist Action shaker. Samples were inspected visually, and if needed, more drug substance was added until excess solid persisted after stirring. The samples were then filtered through 0.45 μm Nylon or PVDF filters or centrifuged at 10,000 RPM for 15 minutes. The filtrate or the supernatant was diluted as needed using the HPLC diluent and analyzed by HPLC. When solubility was greater than 100 mg/mL, no attempt was made to determine the equilibrium solubility and the compound was described as “freely soluble” as per the USP definition.
as §2

Data set [4] in a line: Moisture sorption analysis (VTI moisture sorption balance). To be noted: 25° C. The method, then: Moisture uptake and loss was monitored as a function of relative humidity using a VTI, moisture sorption balance. A 30-40 mg sample was loaded into a tared glass sample holder. The initial weight of the sample was accurately recorded. The sample was then dried under a steady stream of nitrogen for 2 hours at 40° C. After initial drying, the sample mass was equilibrated with dry nitrogen at 25° C. and the sample was exposed to progressive stepwise increases in humidity under controlled conditions. The sample was equilibrated for two hours at each new relative humidity. The moisture sorption behavior was monitored at 10% to 90% RH in 10% RH intervals and desorption was monitored from 90% to 10% RH. The % moisture gain/loss was recorded vs. the % RH.

Data set [5] in a line: pKa and intrinsic solubility from fit of pH-solubility profile to Henderson-Hasselbach equation. Conditions: for solubility: aqueous buffer; for pKa: estimated from fit of pH-solubility profile. From the text: To determine pKas that were consistent with observed solubility behavior, the pH dependent solubility was fitted to the following expression: S=So*(10^pKa1-pH+10^pH-pKa2+1) where S=solubility So=intrinsic solubility (total of zwitterionic and neutral species) pKa1=dissociation constant for the carboxylic acid moiety pKa2=dissociation constant for the primary ammonium ion moiety

SMILES strings stand for the structures. In brackets after ≈: the same amount, converted by molar mass. Read-outs that look alike come from different tables or passages of the source.

The term solubility denotes how much of the substance goes into solution per volume. Take `N[C@@H]1CCCCN(c2c(F)cc3c(=O)c(C(=O)O)cn(C4CC4)c3c2Cl)C1` [besifloxacin free base, (R)-(+)-7-(3-amino-2,3,4,5,6,7-hexahydro-1H-azepin-1-yl)-1-cyclopropyl-8-chloro-6-fluoro-1,4-dihydro-4-oxoquinoline-3-carboxylic acid]: the solubility in data set [1] (pH 6.5 (product pH), read-out: Solubility in aqueous media) is about 100 µg/mL (≈ 254 µM); in data set [2] (Acetonitrile), 5 µg/mL (≈ 12.7 µM); in data set [2] (Ethanol), 33 µg/mL (≈ 83.8 µM); in data set [2] (Isopropanol), 4 µg/mL (≈ 10.2 µM); in data set [2] (Methanol), 135 µg/mL (≈ 343 µM); in data set [3] (saturated solution pH 3.6 (HCl salt), 8.1 (free base), solubility of free base), 79 µg/mL. The USP def entry in data set [2] (Acetonitrile) is on record as “Insoluble”; in data set [2] (Ethanol), “Insoluble”; in data set [2] (Isopropanol), “Insoluble”; in data set [2] (Methanol), “Very slightly”; in data set [3], “Insoluble”. Further, the “Hygroscopicity / moisture sorption behaviour” value in data set [4] (10% to 90% RH, listed as Besifloxacin free base) was “sorbed moisture at all RH conditions”. Besides, in data set [4] (90% RH), the Moisture sorbed entry is on record as “up to 5 % w/w”.
A word on the pKa: it is the negative logarithm of the acid dissociation constant. With `N[C@@H]1CCCCN(c2c(F)cc3c(=O)c(C(=O)O)cn(C4CC4)c3c2Cl)C1` [besifloxacin, (R)-(+)-7-(3-amino-2,3,4,5,6,7-hexahydro-1H-azepin-1-yl)-1-cyclopropyl-8-chloro-6-fluoro-1,4-dihydro-4-oxoquinoline-3-carboxylic acid], the “Solubility description of the zwitterion” value in data set [1] (aqueous, pH 5.5-9.0) was “very slightly soluble”. Moreover, the “Solubility of the zwitterion” value in data set [1] (aqueous, pH range 5.5-9.0) is about 100 µg/mL. In addition, the solubility in data set [1] (aqueous, pH 3, read-out: Maximum solubility as a function of pH) was about 10000 µg/mL (≈ 25400 µM); in data set [1] (aqueous, pH range 5.5-9.0, read-out: Solubility of the zwitterion) it was about 100 µg/mL (≈ 254 µM); in data set [5] (distilled water (pH adjusted with 1 N NaOH), assumed in fit of pH-solubility profile, read-out: Intrinsic solubility), 74 µg/mL (≈ 188 µM); in data set [5] (distilled water, pH adjusted with 1 N NaOH, fit of pH-solubility profile, total of zwitterionic and neutral species, read-out: Intrinsic solubility (So)) it was 74 µg/mL (≈ 188 µM). Further, the results for the pKa in data set [5] (read-out: pKa of the carboxylic acid group (pKa1)) and in data set [5] (read-out: pKa of the primary amine (ammonium) group (pKa2)) were 5.65 and 9.91, respectively.
